Results from PubChem BioAssay AID296 (DTP/NCI, 2004).
“And” between values parts separate entries of the source, which are not always exact repeats. Equal values may be shown once. Records with an inconclusive call do not appear.

System: MX-1 breast xenograft, nude mice, tumor weight T/C
Assay: NCI In Vivo Anticancer Drug Screen. Data for tumor model Human Mammary Carcinoma MX-1 Xenograft (intrarenal inoculation) in NU/NU Swiss (nude) mice
Settings: endpoint: mean tumor weight change, higher = larger tumour
Procedure, shortened: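 Tumor-bearing mice were treated with test compound alongside a vehicle-treated control group. Survival or tumor size was measured, and activity is expressed as the treated-group value divided by the control-group value.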

C=CCc1cn(C2CC(O)C(CO)O2)c(=O)[nH]c1=O (stereo not given)
T/C (dose: 300.0 mg/kg/injection, schedule: Q04DX003 (sc), vehicle: saline): 121 % of control
T/C (dose: 600.0 mg/kg/injection, schedule: Q04DX003 (sc), vehicle: saline): 114 % of control
T/C (dose: 1200.0 mg/kg/injection, schedule: Q04DX003 (sc), vehicle: saline): 93 % of control
T/C (dose: 2400.0 mg/kg/injection, schedule: Q04DX003 (sc), vehicle: saline): 97 % of control

BrC[P+](CBr)(CBr)CBr
T/C (dose: 100.0 mg/kg/injection, schedule: Q04DX003 (sc), vehicle: saline with Tween-80): 105 % of control
T/C (dose: 200.0 mg/kg/injection, schedule: Q04DX003 (sc), vehicle: saline with Tween-80): 117 % of control
T/C (dose: 400.0 mg/kg/injection, schedule: Q04DX003 (sc), vehicle: saline with Tween-80): 111 % of control

COC1=C2C[C@@H](C)C[C@@H](OC)[C@@H](O)[C@H](C)/C=C(\C)[C@@H](OC(N)=O)[C@H](OC)/C=C\C=C(/C)C(=O)NC(=CC1=O)C2=O
T/C (dose: 4.0 mg/kg/injection, schedule: Q04DX003 (sc), vehicle: saline): 102 % of control
T/C (dose: 8.0 mg/kg/injection, schedule: Q04DX003 (sc), vehicle: saline): 89 % of control
T/C (dose: 16.0 mg/kg/injection, schedule: Q04DX003 (sc), vehicle: saline): 89 % of control
T/C (dose: 32.0 mg/kg/injection, schedule: Q04DX003 (sc), vehicle: saline): 88 % of control and 94 % of control
T/C (dose: 64.0 mg/kg/injection, schedule: Q04DX003 (sc), vehicle: saline): 85 % of control
T/C (dose: 128.0 mg/kg/injection, schedule: Q04DX003 (sc), vehicle: saline): 66 % of control

Cc1ccc2c(c1)C(=O)N(CC[P+](c1ccccc1)(c1ccccc1)c1ccccc1)C2=O
T/C (dose: 25.0 mg/kg/injection, schedule: Q04DX003 (sc), vehicle: Klucel (hydroxypropylcellulose) (HPC)): 110 % of control

COc1ccc(C(N)=O)cc1N=NN(C)C
T/C (dose: 50.0 mg/kg/injection, schedule: Q01DX010 (sc), vehicle: Klucel (hydroxypropylcellulose) (HPC)): 169 % of control

CN(C)c1ccc2c(NCCCCCCNc3ccnc4cc(N(C)C)ccc34)ccnc2c1
T/C (dose: 37.5 mg/kg/injection, schedule: Q04DX003 (sc), vehicle: distilled water + Tween-80 + alcohol): 72 % of control
T/C (dose: 75.0 mg/kg/injection, schedule: Q04DX003 (sc), vehicle: distilled water + Tween-80 + alcohol): 63 % of control and 64 % of control
T/C (dose: 600.0 mg/kg/injection, schedule: Q04DX003 (sc), vehicle: distilled water + Tween-80 + alcohol): 34 % of control and 54 % of control

C=C1C(=O)C2=CC1CCC(=O)C1(C)CCC(OC(C)=O)C(C)(C)C1CC2O (stereo not given)
T/C (dose: 30.0 mg/kg/injection, schedule: Q04DX003 (sc), vehicle: Klucel (hydroxypropylcellulose) (HPC)): 107 % of control
T/C (dose: 60.0 mg/kg/injection, schedule: Q04DX003 (sc), vehicle: Klucel (hydroxypropylcellulose) (HPC)): 69 % of control
T/C (dose: 120.0 mg/kg/injection, schedule: Q04DX003 (sc), vehicle: Klucel (hydroxypropylcellulose) (HPC)): 42 % of control

CC1=CC(=NN=c2cc(C)n([O-])c(C)c2)C=C(C)[N+]1=O
T/C (dose: 300.0 mg/kg/injection, schedule: Q04DX003 (sc), vehicle: suspension in saline): 90 % of control
T/C (dose: 600.0 mg/kg/injection, schedule: Q04DX003 (sc), vehicle: suspension in saline): 36 % of control
T/C (dose: 1200.0 mg/kg/injection, schedule: Q04DX003 (sc), vehicle: suspension in saline): 112 % of control
T/C (dose: 2400.0 mg/kg/injection, schedule: Q04DX003 (sc), vehicle: suspension in saline): 32 % of control

CCCCCCCCCCCCCCCCCC(=O)OCC(=O)OCC(=O)[C@]1(O)Cc2c(O)c3c(c(O)c2[C@@H](OC2CC(N)C(O)C(C)O2)C1)C(=O)c1c(OC)cccc1C3=O (stereo not given in full)
T/C (dose: 6.0 mg/kg/injection, schedule: Q01DX010 (sc), vehicle: water): 48 % of control
T/C (dose: 12.0 mg/kg/injection, schedule: Q01DX010 (sc), vehicle: water): 21 % of control

N=C(N)Sc1ccccn1
T/C (dose: 25.0 mg/kg/injection, schedule: Q01DX010 (sc), vehicle: saline): 182 % of control

COc1cc2cc(c1Cl)N(C)C(=O)CC(OC(=O)C(C)C)C1(C)OC1C(C)C1CC(O)(NC(=O)O1)C(OC)/C=C/C=C(C)C2 (stereo not given)
T/C (dose: 1.56 micrograms/kg/injection, schedule: Q01DX010 (sc), vehicle: saline + alcohol): 40 % of control
T/C (dose: 3.12 micrograms/kg/injection, schedule: Q01DX010 (sc), vehicle: saline + alcohol): 67 % of control
T/C (dose: 6.25 micrograms/kg/injection, schedule: Q01DX010 (sc), vehicle: saline + alcohol): 53 % of control
T/C (dose: 12.5 micrograms/kg/injection, schedule: Q01DX010 (sc), vehicle: saline + alcohol): 67 % of control

COc1cc(C(C)(C)C)cc(OC)c1C(O)(c1c(OC)cc(C(C)(C)C)cc1OC)c1c(OC)cc(C(C)(C)C)cc1OC
T/C (dose: 600.0 mg/kg/injection, schedule: Q04DX003 (sc), vehicle: saline with Tween-80): 212 % of control
T/C (dose: 1200.0 mg/kg/injection, schedule: Q04DX003 (sc), vehicle: saline with Tween-80): 154 % of control
T/C (dose: 2400.0 mg/kg/injection, schedule: Q04DX003 (sc), vehicle: saline with Tween-80): 207 % of control
